21 molecules from patent publication US11149037B2, “Pyrazole MAGL inhibitors” (H. Lundbeck A/S, priority 2017, dated 2021) can be followed below.

Each structure is given as a SMILES string.

Common to all, as to assay type: biochemical
The target in assay [1] is MAGL (Mus musculus (Mouse), UniProt O35678). The experiment in a line: In vitro competitive activity-based protein profiling, mouse proteomes (brain membrane fraction or cell lysates). To be noted: mouse proteome, read-out: MAGL % inh. 1 μM (mouse). The method, boiled down:
(§1)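 Activity of MAGL and FAAH was quantified from fluorescent gel band intensities. Beforehand, inhibitors at several concentrations competed against subsequent probe labelling (FP-Rh, JW912 or HT-01) in species-matched proteomes, each step 30 min at 37° C.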

Assay [2] has as its target FAAH (Mus musculus (Mouse), UniProt O08914). The assay is described as above. To be noted: mouse proteome, read-out: FAAH % inh. 1 μM (mouse). The method, boiled down: as §1
Assay [3] addresses MAGL (Homo sapiens (Human), UniProt Q99685). The experiment in a line: In vitro competitive activity-based protein profiling, human proteomes (prefrontal cortex or PC3 cell membrane fractions). To be noted: human proteome; for inhibition at 1 µM: read-out: MAGL % inh. 1 μM (human). The method, boiled down: as §1
For assay [4], the target named is FAAH (Homo sapiens (Human), UniProt O00519). Described as above. Conditions: human proteome; for inhibition at 1 µM: read-out: FAAH % inh. 1 μM (human). The gist of the method: as §1
Sequence of FAAH (Homo sapiens (Human), UniProt O00519) (O00519 whole entry): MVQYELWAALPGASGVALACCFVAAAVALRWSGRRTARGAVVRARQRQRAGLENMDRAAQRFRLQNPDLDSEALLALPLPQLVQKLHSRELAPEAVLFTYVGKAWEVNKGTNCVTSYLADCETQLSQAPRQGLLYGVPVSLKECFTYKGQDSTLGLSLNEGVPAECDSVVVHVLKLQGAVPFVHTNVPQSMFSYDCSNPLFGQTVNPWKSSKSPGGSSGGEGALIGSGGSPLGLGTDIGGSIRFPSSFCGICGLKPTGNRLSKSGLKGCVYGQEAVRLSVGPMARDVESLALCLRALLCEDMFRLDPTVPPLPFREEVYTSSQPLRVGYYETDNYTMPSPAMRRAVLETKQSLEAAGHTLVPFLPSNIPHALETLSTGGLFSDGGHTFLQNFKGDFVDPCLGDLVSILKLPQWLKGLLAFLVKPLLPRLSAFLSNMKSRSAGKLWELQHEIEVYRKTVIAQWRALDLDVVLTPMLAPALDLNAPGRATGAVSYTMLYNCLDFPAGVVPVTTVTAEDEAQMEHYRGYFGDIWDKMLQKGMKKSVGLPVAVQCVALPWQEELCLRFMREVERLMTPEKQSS

Sequence of FAAH (Mus musculus (Mouse), UniProt O08914) (O08914 whole entry): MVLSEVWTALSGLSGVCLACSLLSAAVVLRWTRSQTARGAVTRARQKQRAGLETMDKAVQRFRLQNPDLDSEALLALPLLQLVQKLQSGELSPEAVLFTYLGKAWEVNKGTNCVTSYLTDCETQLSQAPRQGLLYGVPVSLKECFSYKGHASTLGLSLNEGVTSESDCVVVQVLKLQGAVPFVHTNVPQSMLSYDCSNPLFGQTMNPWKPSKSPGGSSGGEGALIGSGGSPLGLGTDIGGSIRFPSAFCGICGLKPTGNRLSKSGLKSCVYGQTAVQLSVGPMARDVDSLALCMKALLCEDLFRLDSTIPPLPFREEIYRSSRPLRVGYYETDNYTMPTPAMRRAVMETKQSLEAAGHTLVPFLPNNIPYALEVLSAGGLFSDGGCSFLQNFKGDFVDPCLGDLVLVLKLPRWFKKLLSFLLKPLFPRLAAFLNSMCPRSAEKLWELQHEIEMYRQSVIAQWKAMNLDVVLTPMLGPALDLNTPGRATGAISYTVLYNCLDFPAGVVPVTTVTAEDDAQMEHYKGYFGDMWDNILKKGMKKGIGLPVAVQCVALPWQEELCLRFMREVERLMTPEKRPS
Sequence of MAGL (Homo sapiens (Human), UniProt Q99685) (Q99685 whole entry): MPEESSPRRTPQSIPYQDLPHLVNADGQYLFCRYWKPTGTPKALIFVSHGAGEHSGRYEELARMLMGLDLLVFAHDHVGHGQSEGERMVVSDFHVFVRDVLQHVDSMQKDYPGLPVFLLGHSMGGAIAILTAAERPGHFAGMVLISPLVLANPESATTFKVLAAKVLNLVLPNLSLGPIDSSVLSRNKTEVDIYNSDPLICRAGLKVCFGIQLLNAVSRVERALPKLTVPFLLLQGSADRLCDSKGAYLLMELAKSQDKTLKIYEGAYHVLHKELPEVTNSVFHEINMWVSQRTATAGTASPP
Sequence of MAGL (Mus musculus (Mouse), UniProt O35678) (O35678 whole entry): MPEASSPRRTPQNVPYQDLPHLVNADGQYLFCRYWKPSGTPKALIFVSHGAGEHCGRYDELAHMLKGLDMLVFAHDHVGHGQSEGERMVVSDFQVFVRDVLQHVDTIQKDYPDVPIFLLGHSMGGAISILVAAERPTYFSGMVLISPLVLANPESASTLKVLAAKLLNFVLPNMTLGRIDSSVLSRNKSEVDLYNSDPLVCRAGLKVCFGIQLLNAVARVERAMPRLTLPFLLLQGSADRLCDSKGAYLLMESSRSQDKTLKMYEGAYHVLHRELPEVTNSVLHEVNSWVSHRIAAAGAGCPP

Regarding `CC(=O)Nc1ccn(C(=O)N2CCN(Cc3ccc(C(N)=O)c(C(F)(F)F)c3)CC2)n1` [Example 123, 4-((4-(3-Acetamido-1H-pyrazole-1-carbonyl)piperazin-1-yl)methyl)-2-(trifluoromethyl)benzamide], the inhibition at 1 µM was > 75% on MAGL [1], 0 to 25% on FAAH [2], > 75% on MAGL [3] and 0 to 25% on FAAH [4].

For `CC(=O)Nc1ccn(C(=O)N2CC3CN(Cc4ccc(C(N)=O)c(C(F)(F)F)c4)CC3C2)n1` (stereo not drawn) [Example 124, 4-((5-(3-Acetamido-1H-pyrazole-1-carbonyl)hexahydropyrrolo[3,4-c]pyrrol-2(1H)-yl)methyl)-2-(trifluoromethyl)benzamide], the inhibition at 1 µM was > 75% on MAGL [1], 0 to 25% on FAAH [2], > 75% at MAGL [3] and 0 to 25% at FAAH [4].

`CC(=O)Nc1ccn(C(=O)N2CCC3(CC2)CN(Cc2ccc(C(N)=O)c(C(F)(F)F)c2)C3)n1` [Example 126, 4-((7-(3-Acetamido-1H-pyrazole-1-carbonyl)-2,7-diazaspiro[3.5]nonan-2-yl)methyl)-2-(trifluoromethyl)benzamide]: the inhibition at 1 µM on MAGL [1] is > 75%; at FAAH [2], 0 to 25%; at MAGL [3] it was > 75%; at FAAH [4], 0 to 25%.

Turning to `CC(=O)Nc1ccn(C(=O)N2CCN(Cc3cccc(C(F)(F)F)c3)CC2)n1` [Example 127, N-(1-(4-(3-(Trifluoromethyl)benzyl)piperazine-1-carbonyl)-1H-pyrazol-3-yl)acetamide], the inhibition at 1 µM on MAGL [1] is > 75%; at FAAH [2], 0 to 25%; on MAGL [3], > 75%; at FAAH [4] it was 0 to 25%.

Take `CC(=O)Nc1ccn(C(=O)N2CCN(Cc3cccc(OC(F)(F)F)c3)CC2)n1` [Example 128, N-(1-(4-(3-(Trifluoromethoxy)benzyl)piperazine-1-carbonyl)-1H-pyrazol-3-yl)acetamide]: the inhibition at 1 µM on MAGL [1] was > 75%; on FAAH [2] it was 0 to 25%; on MAGL [3], > 75%; on FAAH [4], 0 to 25%.

Take `CC(=O)Nc1ccn(C(=O)N2CCN(Cc3cccc(C(F)(F)F)c3C)CC2)n1` [Example 129, N-(1-(4-(2-Methyl-3-(trifluoromethyl)benzyl)piperazine-1-carbonyl)-1H-pyrazol-3-yl)acetamide]: the inhibition at 1 µM at MAGL [1] is > 75%; at FAAH [2], 0 to 25%; on MAGL [3] it was > 75%; on FAAH [4] it was 0 to 25%.

Regarding `CC(=O)Nc1ccn(C(=O)N2CCC(C)(N(C)Cc3ccc(C(N)=O)c(C(F)(F)F)c3)CC2)n1` [Example 130, 4-(((1-(3-Acetamido-1H-pyrazole-1-carbonyl)-4-methylpiperidin-4-yl)(methyl)amino)methyl)-2-(trifluoromethyl)benzamide], the inhibition at 1 µM on MAGL [1] is > 75%; at FAAH [2] it was 0 to 25%; at MAGL [3], > 75%; at FAAH [4], 0 to 25%.

Turning to `CS(=O)(=O)Nc1ccn(C(=O)N2CC3CN(Cc4ccc(Cl)c(N5CC6COCC6C5)c4)CC3C2)n1` (stereo not drawn) [Example 140, N-(1-(5-(4-chloro-3-(Tetrahydro-1H-furo[3,4-c]pyrrol-5(3H)-yl)benzyl)octahydropyrrolo[3,4-c]pyrrole-2-carbonyl)-1H-pyrazol-3-yl)methanesulfonamide], the inhibition at 1 µM at MAGL [1] fell in the range of 0 to 25%; on FAAH [2] it was 0 to 25%; on MAGL [3] it was 25 to 50%; on FAAH [4] it was 0 to 25%.

Regarding `C[C@@H]1CN(Cc2ccc(Cl)c(N3CCC(F)CC3)c2)CCN1C(=O)n1ccc(NS(C)(=O)=O)n1` [Example 142, (R)-N-(1-(4-(4-Chloro-3-(4-fluoropiperidin-1-yl)benzyl)-2-methylpiperazine-1-carbonyl)-1H-pyrazol-3-yl)methanesulfonamide], the inhibition at 1 µM on MAGL [1] is > 75%; on FAAH [2], 0 to 25%; at MAGL [3] it was > 75%; at FAAH [4], 0 to 25%.

On to `CC(=O)Nc1ccn(C(=O)N2CCN(Cc3cc(Cl)cc(Cl)c3)CC2)n1` [Example 144, N-(1-(4-(3,5-Dichlorobenzyl)piperazine-1-carbonyl)-1H-pyrazol-3-yl)acetamide], for which the inhibition at 1 µM on MAGL [1] was > 75%; on FAAH [2], 0 to 25%; on MAGL [3], > 75%; at FAAH [4], 0 to 25%.

In general, IC50 refers to the concentration that gives 50% inhibition. Low readings indicate greater potency, high ones weaker potency. Turning to `CC(=O)Nc1ccn(C(=O)N2CC3CN(Cc4cc(F)cc(Cl)c4)CC3C2)n1` (stereo not drawn) [Example 145, N-(1-(5-(3-Chloro-5-fluorobenzyl)octahydropyrrolo[3,4-c]pyrrole-2-carbonyl)-1H-pyrazol-3-yl)acetamide], the inhibition at 1 µM on MAGL [1], on FAAH [2], at MAGL [3] and at FAAH [4] was > 75% in each case. For the same molecule, the 50% inhibitory concentration (IC50) at MAGL [3] was < 0.1 µM; on FAAH [4], 0.1 to 1 µM.

`CC(=O)Nc1ccn(C(=O)N2CC3CN(Cc4cc(Cl)cc(C(F)(F)F)c4)CC3C2)n1` (stereo not drawn) [Example 146, N-(1-(5-(3-Chloro-5-(trifluoromethyl)benzyl)octahydropyrrolo[3,4-c]pyrrole-2-carbonyl)-1H-pyrazol-3-yl)acetamide]: the inhibition at 1 µM at MAGL [1], on FAAH [2], at MAGL [3] and at FAAH [4] was > 75% throughout. Besides, the IC50 on MAGL [3] is < 0.1 µM; on FAAH [4], 1 to 10 µM.

In the case of `CS(=O)(=O)Nc1ccn(C(=O)N2CCN(Cc3ccc(Cl)c(N4CCC(F)(F)CC4)c3)CC2)n1` [Example 147, N-(1-(4-(4-Chloro-3-(4,4-difluoropiperidin-1-yl)benzyl)piperazine-1-carbonyl)-1H-pyrazol-3-yl)methanesulfonamide], the inhibition at 1 µM on MAGL [1] was > 75%; at FAAH [2], 0 to 25%; on MAGL [3] it was > 75%; on FAAH [4] it was 0 to 25%.

For `CS(=O)(=O)Nc1ccn(C(=O)N2CCN(Cc3cccc(Oc4ccc(Cl)cc4)c3)CC2)n1` [Example 149, N-(1-(4-(3-(4-Chlorophenoxy)benzyl)piperazine-1-carbonyl)-1H-pyrazol-3-yl)methanesulfonamide], the inhibition at 1 µM on MAGL [1], on FAAH [2], at MAGL [3] and on FAAH [4] was > 75% throughout. Moreover, the values for the IC50 at MAGL [3] and at FAAH [4] were < 0.1 µM and 0.1 to 1 µM, respectively.

Consider `C[C@H]1CCCN1c1cc(CN2CCN(C(=O)n3ccc(NS(C)(=O)=O)n3)CC2)ccc1C(F)(F)F` [Example 151, (S)-N-(1-(4-(3-(2-Methylpyrrolidin-1-yl)-4-(trifluoromethyl)benzyl)piperazine-1-carbonyl)-1H-pyrazol-3-yl)methanesulfonamide], for which the inhibition at 1 µM on MAGL [1] was > 75%; at FAAH [2], 0 to 25%; at MAGL [3], > 75%; on FAAH [4], 0 to 25%.

For the molecule `CCN1CC2CN(c3cc(CN4CCN(C(=O)n5ccc(NS(C)(=O)=O)n5)CC4)ccc3Cl)CC2C1` (stereo not drawn) [Example 153, N-(1-(4-(4-Chloro-3-(5-ethylhexahydropyrrolo[3,4-c]pyrrol-2(1H)-yl)benzyl)piperazine-1-carbonyl)-1H-pyrazol-3-yl)methanesulfonamide], the inhibition at 1 µM is 50 to 75% on MAGL [1], 0 to 25% at FAAH [2], > 75% at MAGL [3] and 0 to 25% on FAAH [4].

Take `CC(=O)Nc1ccn(C(=O)N2CCC3(CCCN3C(=O)c3cc4ccc(C(F)(F)F)cc4s3)CC2)n1` [Example 155, N-(1-(1-(6-(Trifluoromethyl)benzo[b]thiophene-2-carbonyl)-1,8-diazaspiro[4.5]decane-8-carbonyl)-1H-pyrazol-3-yl)acetamide]: the inhibition at 1 µM at MAGL [1] was > 75%; at FAAH [2] it was > 75%; on MAGL [3], > 75%; on FAAH [4], 0 to 25%.

Consider `CS(=O)(=O)Nc1ccn(C(=O)N2CCC3(CCN(Cc4ccc(N5CC6COCC6C5)c(Cl)c4)C3)CC2)n1` (stereo not drawn) [Example 160, N-(1-(2-(3-Chloro-4-(tetrahydro-1H-furo[3,4-c]pyrrol-5(3H)-yl)benzyl)-2,8-diazaspiro[4.5]decane-8-carbonyl)-1H-pyrazol-3-yl)methanesulfonamide], for which the inhibition at 1 µM fell in the range of 0 to 25% at MAGL [1], 0 to 25% on FAAH [2], 50 to 75% on MAGL [3] and 25 to 50% on FAAH [4].

Consider `CS(=O)(=O)Nc1ccn(C(=O)N2CCC3(CCN(Cc4ccccc4Cl)C3)CC2)n1` [Example 162, N-(1-(2-(2-Chlorobenzyl)-2,8-diazaspiro[4.5]decane-8-carbonyl)-1H-pyrazol-3-yl)methanesulfonamide], for which the inhibition at 1 µM was 0 to 25% at MAGL [1], 0 to 25% on FAAH [2], > 75% on MAGL [3] and 0 to 25% at FAAH [4].

Regarding `CS(=O)(=O)Nc1ccn(C(=O)N2CCC3(CCN(Cc4cccc(Cl)c4)C3)CC2)n1` [Example 163, N-(1-(2-(3-Chlorobenzyl)-2,8-diazaspiro[4.5]decane-8-carbonyl)-1H-pyrazol-3-yl)methanesulfonamide], the inhibition at 1 µM on MAGL [1] was 0 to 25%; at FAAH [2], 0 to 25%; on MAGL [3] it was > 75%; at FAAH [4] it was 0 to 25%.

In the case of `CS(=O)(=O)Nc1ccn(C(=O)N2CCC3(CCN(Cc4ccc(Cl)cc4)C3)CC2)n1` [Example 164, N-(1-(2-(4-Chlorobenzyl)-2,8-diazaspiro[4.5]decane-8-carbonyl)-1H-pyrazol-3-yl)methanesulfonamide], the inhibition at 1 µM at MAGL [1] was 0 to 25%; on FAAH [2], 0 to 25%; on MAGL [3], > 75%; at FAAH [4], 0 to 25%.
